This assay addresses T1, Human PPARα (Homo sapiens, UniProt Q07869).
T1 construct: host or cells: proprietary non-human mammalian cells
T1 sequence (Q07869 1-468): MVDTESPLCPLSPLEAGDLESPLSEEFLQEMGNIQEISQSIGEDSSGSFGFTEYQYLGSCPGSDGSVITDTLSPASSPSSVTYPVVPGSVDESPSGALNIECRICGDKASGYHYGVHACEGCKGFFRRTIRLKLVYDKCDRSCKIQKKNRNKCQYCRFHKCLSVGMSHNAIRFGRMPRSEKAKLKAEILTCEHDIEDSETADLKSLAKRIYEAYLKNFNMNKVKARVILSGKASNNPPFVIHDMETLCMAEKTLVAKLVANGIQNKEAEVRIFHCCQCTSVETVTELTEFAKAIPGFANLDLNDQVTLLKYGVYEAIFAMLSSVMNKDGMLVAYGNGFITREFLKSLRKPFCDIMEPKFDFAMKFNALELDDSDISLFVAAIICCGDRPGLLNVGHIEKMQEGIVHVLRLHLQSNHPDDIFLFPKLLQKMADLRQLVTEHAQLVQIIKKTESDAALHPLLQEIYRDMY
As to the kind of experiment: Human PPARα Reporter Assay (luciferase). Conditions: human PPARα reporter cells, overnight incubation, antagonism; read-out: Luciferase IC50. Format: cell-based. A digest of the protocol: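 Agonist or antagonist activity read as luciferase light from engineered reporter cells carrying human PPARα and a responsive reporter gene. Cells got compound immediately on dispensing, incubated overnight, then treatment media swapped for luciferase detection reagent.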
On the technique in general: Reporter assays use an easily measured gene product as a stand-in for the process of interest.
A word on the IC50: it is the point on the concentration scale where inhibition reaches its midpoint. As to `CCn1c(CCCc2ccc(-c3ccc(NS(=O)(=O)Cc4ccccc4)c(C)n3)cc2)nn(Cc2ccc(C(C)(C)C)cc2)c1=O` [Example 125, 1-{[4-(tert-Butyl)phenyl]methyl}-4-ethyl-3-{3-[4-(6-methyl-5-{[benzylsulfonyl]amino}(2-pyridyl))phenyl]propyl}-1,2,4-triazolin-5-one], the IC50 is 0.356 µM.

Consider `CCn1c(CCCc2ccc(-c3cc(C)c(NS(=O)(=O)c4ccccc4)cn3)cc2)nn(Cc2ccc(C(C)(C)C)cc2)c1=O` [Example 126, 1-{[4-(tert-Butyl)phenyl]methyl}-4-ethyl-3-[3-(4-{4-methyl-5-[(phenylsulfonyl)amino](2-pyridyl)}phenyl)propyl]-1,2,4-triazolin-5-one], for which the IC50 is 0.201 µM.

On to `CCn1c(CCCc2ccc(-c3cc(C)c(NS(=O)(=O)Cc4ccccc4)cn3)cc2)nn(Cc2ccc(C(C)(C)C)cc2)c1=O` [Example 127, 1-{[4-(tert-Butyl)phenyl]methyl}-4-ethyl-3-{3-[4-(4-methyl-5-{[benzylsulfonyl]amino}(2-pyridyl))phenyl]propyl}-1,2,4-triazolin-5-one], for which the IC50 turned out to be 0.445 µM.

For the molecule `CCn1c(CCCc2ccc(-c3ccc(OC)c(C4(C(=O)O)CC4)c3)cc2)nn(Cc2ccc(C(C)(C)C)cc2)c1=O` [Example 128, 1-(4′-(3-(1-(4-(tert-Butyl)benzyl)-4-ethyl-5-oxo-4,5-dihydro-1H-1,2,4-triazol-3-yl)propyl)-4-methoxy-[1,1′-biphenyl]-3-yl)cyclopropanecarboxylic acid], the IC50 was determined as 0.281 µM.

Consider `CCn1c(CCCc2ccc(-c3cncc(NS(=O)(=O)c4ccccc4)n3)cc2)nn(Cc2ccc(C(C)(C)C)cc2)c1=O` [Example 129, N-(6-(4-(3-(1-(4-(tert-Butyl)benzyl)-4-ethyl-5-oxo-4,5-dihydro-1H-1,2,4-triazol-3-yl)propyl)phenyl)pyrazin-2-yl)benzenesulfonamide], for which the concentration for half-maximal inhibition (IC50) stood at 0.036 µM.

With `CCn1c(CCCc2ccc(-c3ccc(OC(F)(F)F)c(CC(=O)O)c3)cc2)nn(Cc2ccc(C(C)(C)C)cc2)c1=O` [Example 130, 2-(4′-(3-(1-(4-(tert-Butyl)benzyl)-4-ethyl-5-oxo-4,5-dihydro-1H-1,2,4-triazol-3-yl)propyl)-4-(trifluoromethoxy)-[1,1′-biphenyl]-3-yl)acetic acid], the IC50 stood at 0.011 µM.

Consider `CCn1c(CCCc2ccc(-c3ccc(OC(F)(F)F)c(C(=O)O)c3)cc2)nn(Cc2ccc(C(C)(C)C)cc2)c1=O` [Example 131, 4′-(3-(1-(4-(tert-Butyl)benzyl)-4-ethyl-5-oxo-4,5-dihydro-1H-1,2,4-triazol-3-yl)propyl)-4-(trifluoromethoxy)-[1,1′-biphenyl]-3-carboxylic acid], for which the IC50 was 0.015 µM.

Take `CCn1c(CCCc2ccc(-c3ccc(C)c(C(=O)O)c3)cc2)nn(Cc2ccc(C(C)(C)C)cc2)c1=O` [Example 132, 4′-(3-(1-(4-(tert-Butyl)benzyl)-4-ethyl-5-oxo-4,5-dihydro-1H-1,2,4-triazol-3-yl)propyl)-4-methyl-[1,1′-biphenyl]-3-carboxylic acid]: the IC50 turned out to be 0.012 µM.

On to `CCn1c(CCCc2ccc(-c3ccc(OC)c(C4(C(=O)O)CCC4)c3)cc2)nn(Cc2ccc(C(C)(C)C)cc2)c1=O` [Example 133, 1-(4′-(3-(1-(4-(tert-Butyl)benzyl)-4-ethyl-5-oxo-4,5-dihydro-1H-1,2,4-triazol-3-yl)propyl)-4-methoxy-[1,1′-biphenyl]-3-yl)cyclobutanecarboxylic acid], for which the IC50 came to 0.597 µM.

With `CCn1c(CCCc2ccc(-c3ccc(C(F)(F)F)c(C(=O)O)c3)cc2)nn(Cc2ccc(C(C)(C)C)cc2)c1=O` [Example 134, 4′-(3-(1-(4-(tert-Butyl)benzyl)-4-ethyl-5-oxo-4,5-dihydro-1H-1,2,4-triazol-3-yl)propyl)-4-(trifluoromethyl)-[1,1′-biphenyl]-3-carboxylic acid], the IC50 worked out at 0.109 µM.

As for `CCn1c(CCCc2ccc(-c3ccc(OC)c(CC(=O)NS(C)(=O)=O)c3)cc2)nn(Cc2ccc(C(C)(C)C)cc2)c1=O` [Example 135, 2-(4′-(3-(1-(4-(tert-Butyl)benzyl)-4-ethyl-5-oxo-4,5-dihydro-1H-1,2,4-triazol-3-yl)propyl)-4-methoxy-[1,1′-biphenyl]-3-yl)-N-(methylsulfonyl)acetamide], the IC50 was determined as 0.192 µM.

`CCn1c(CCCc2ccc(-c3ccc(OC)c(CC(=O)NS(=O)(=O)c4ccccc4)c3)cc2)nn(Cc2ccc(C(C)(C)C)cc2)c1=O` [Example 136, 2-(4′-(3-(1-(4-(tert-Butyl)benzyl)-4-ethyl-5-oxo-4,5-dihydro-1H-1,2,4-triazol-3-yl)propyl)-4-methoxy-[1,1′-biphenyl]-3-yl)-N-(phenylsulfonyl)acetamide]: the concentration for half-maximal inhibition (IC50) turned out to be 0.041 µM.

`CCn1c(CCCc2ccc(-c3ccc(C4(C(=O)O)CC4)cc3)cc2)nn(Cc2ccc(C(C)(C)C)cc2)c1=O` [Example 137, 1-(4′-(3-(1-(4-(tert-Butyl)benzyl)-4-ethyl-5-oxo-4,5-dihydro-1H-1,2,4-triazol-3-yl)propyl)-[1,1′-biphenyl]-4-yl)cyclopropanecarboxylic acid]: the IC50 worked out at 0.676 µM.

On to `CCn1c(CCCc2ccc(-c3ccnc(NS(=O)(=O)c4ccccc4)n3)cc2)nn(Cc2ccc(C(C)(C)C)cc2)c1=O` [Example 138, N-(4-(4-(3-(1-(4-(tert-Butyl)benzyl)-4-ethyl-5-oxo-4,5-dihydro-1H-1,2,4-triazol-3-yl)propyl)phenyl)pyrimidin-2-yl)benzenesulfonamide], for which the IC50 came to 0.033 µM.

In the case of `CCn1c(CCCc2ccc(-c3ccc(OC)c(C(=O)O)n3)cc2)nn(Cc2ccc(C(C)(C)C)cc2)c1=O` [Example 139, 6-(4-(3-(1-(4-(tert-Butyl)benzyl)-4-ethyl-5-oxo-4,5-dihydro-1H-1,2,4-triazol-3-yl)propyl)phenyl)-3-methoxypicolinic acid], the IC50 was 0.089 µM.

Regarding `CCn1c(CCCc2ccc(-c3cc(C(=O)O)c(OC)cn3)cc2)nn(Cc2ccc(C(C)(C)C)cc2)c1=O` [Example 140, 2-(4-(3-(1-(4-(tert-Butyl)benzyl)-4-ethyl-5-oxo-4,5-dihydro-1H-1,2,4-triazol-3-yl)propyl)phenyl)-5-methoxyisonicotinic acid], the IC50 was found to be 0.396 µM.

Consider `CCn1c(CCCc2ccc(-c3ccc(OC)c([C@@H](C)C(=O)O)c3)cc2)nn(Cc2ccc(C(C)(C)C)cc2)c1=O` [Example 141, (R)-2-(4′-(3-(1-(4-(tert-Butyl)benzyl)-4-ethyl-5-oxo-4,5-dihydro-1H-1,2,4-triazol-3-yl)propyl)-4-methoxy-[1,1′-biphenyl]-3-yl)propanoic acid], for which the IC50 worked out at 0.029 µM.

Turning to `CCn1c(CCCc2ccc(-c3ccc(OC)c([C@H](C)C(=O)O)c3)cc2)nn(Cc2ccc(C(C)(C)C)cc2)c1=O` [Example 142, (S)-2-(4′-(3-(1-(4-(tert-Butyl)benzyl)-4-ethyl-5-oxo-4,5-dihydro-1H-1,2,4-triazol-3-yl)propyl)-4-methoxy-[1,1′-biphenyl]-3-yl)propanoic acid], the IC50 worked out at 0.272 µM.

Consider `CCn1c(CCCc2ccc(-c3ccc(C4(F)COC4)cc3)cc2)nn(Cc2ccc(C(C)(C)C)cc2)c1=O` [Example 143, 1-(4-(tert-Butyl)benzyl)-4-ethyl-3-(3-(4%(3-fluorooxetan-3-yl)-[1,1′-biphenyl]-4-yl)propyl)-1H-1,2,4-triazol-5(4H)-one], for which the IC50 is 0.101 µM.

Take `CCn1c(CCCc2ccc(-c3ccc(OC)c(CC(=O)O)n3)cc2)nn(Cc2ccc(C(C)(C)C)cc2)c1=O` [Example 144, 2-(6-(4-(3-(1-(4-(tert-Butyl)benzyl)-4-ethyl-5-oxo-4,5-dihydro-1H-1,2,4-triazol-3-yl)propyl)phenyl)-3-methoxypyridin-2-yl)acetic acid]: the IC50 amounted to 0.114 µM.

As for `CCn1c(CCCc2ccc(-c3ccc(OC)c(CC(=O)O)c3)c(O)c2)nn(Cc2ccc(C(C)(C)C)cc2)c1=O` [Example 145, 2-(4′-(3-(1-(4-(tert-Butyl)benzyl)-4-ethyl-5-oxo-4,5-dihydro-1H-1,2,4-triazol-3-yl)propyl)-2′-hydroxy-4-methoxy-[1,1′-biphenyl]-3-yl) acetic acid], the IC50 was 0.692 µM.

`CCn1c(CCCc2ccc(-c3ccc(OC)c(CC(=O)O)c3)cc2O)nn(Cc2ccc(C(C)(C)C)cc2)c1=O` [Example 146, 2-(4′-(3-(1-(4-(tert-Butyl)benzyl)-4-ethyl-5-oxo-4,5-dihydro-1H-1,2,4-triazol-3-yl)propyl)-3′-hydroxy-4-methoxy-[1,1′-biphenyl]-3-yl) acetic acid]: the IC50 amounted to 0.098 µM.

As for `CCn1c(CCCc2ccc(-c3ccc(OC)c(N)c3)cc2)nn(Cc2ccc(C(C)(C)C)cc2)c1=O` [Example 147, 3-(3-(3′-Amino-4′-methoxy-[1,1′-biphenyl]-4-yl)propyl)-1-(4-(tert-butyl)benzyl)-4-ethyl-1H-1,2,4-triazol-5(4H)-one], the IC50 was 0.085 µM.

With `CCn1c(CCCc2ccc(-c3ccc(C(F)(F)F)c(N)c3)cc2)nn(Cc2ccc(C(C)(C)C)cc2)c1=O` [Example 148, 3-(3-(3′-Amino-4′-(trifluoromethyl)-[1,1′-biphenyl]-4-yl)propyl)-1-(4-(tert-butyl)benzyl)-4-ethyl-1H-1,2,4-triazol-5(4H)-one], the IC50 was found to be 0.241 µM.

For the molecule `CCn1c(CCCc2ccc(-c3ccc(C)c(N)c3)cc2)nn(Cc2ccc(C(C)(C)C)cc2)c1=O` [Example 149, 3-(3-(3′-Amino-4′-methyl-[1,1′-biphenyl]-4-yl)propyl)-1-(4-(tert-butyl)benzyl)-4-ethyl-1H-1,2,4-triazol-5(4H)-one], the IC50 amounted to 0.161 µM.

Source of the values: US9505728B2, “Triazolone compounds and uses thereof” (INCEPTION 2, INC., priority 2012, dated 2016).
